Assay results published in patent US20110171291A1, “PATHOLOGICALLY-ACTIVATED THERAPEUTICS” (Sanford-Burnham Medical Research Institute, priority 2010, published 2011).

What was measured:
[1] = test system: AMPA/KA-type glutamate receptor; assay: Primary screen of the LOPAC 1280 library: Fluo-4 NW calcium entry induced by kainate in cultured cerebrocortical neurons; format: cell-based; settings: three separate screens; 200 μM KA
Experimental: FIGS. 19a and 19b show the fluorescence response indicating calcium ion entry induced by Kainate (KA) at AMPA-type glutamate receptor channels in cultured neurons. Fluorescent dye loading is accomplished by adding Fluo-4 NW to cells at 37° C. for 20 min and at RT (room temperature) for 10 min. The cells are incubated with compounds to be screened (generally 1 to 10 μM in 1% DMSO) for 2 min, followed by incubation with 200 μM kainate (KA) for 10 min (20 μM KA is used for the second, lower concentration of agonist—not shown here). […] The Z-factor, a statistical indication of the robustness of a high-throughput screen, fluctuated between 0.54-0.73 through the time course. This range of Z-factors is more than adequate for HTS (a value of Z≧0.5 generally indicates a robust screen).
The disclosed methods screen for uncompetitive drugs against a number of targets. […] Primary neurons or cell lines are used that contain (or are genetically engineered to contain) a target molecule on their surface, such as the AMPA/kainate-type glutamate receptors with unedited GluR2 subunits or other molecules that result in intracellular Ca^2+ signaling, such as G-protein-coupled receptors. […] Screening (by quantifying the Ca^2+ response) with two concentrations of agonist for the target, a low concentration and a higher concentration, against chemicals in the library administered at a single micromolar concentration. For these AMPA receptors, kainate can be used as the agonist for HTS because the responses are less desensitizing than those to AMPA. The agonist results in an increase in intracellular Ca^2+ that can be monitored by HTS using the Ca^2+ indicator dye fluo-4 NW.
Using cerebrocortical neurons and calcium-sensitive dyes, as described above, conditions have been optimized for screening for AMPA/Kainate-receptor antagonists. For this purpose, the following experimental parameters were varied: cell density, composition of culture medium, length of cultures, type of calcium-sensitive dye, and condition (temperature and length) of dye loading. The following protocol was established. […]

NMDA receptor = assay: Excitatory postsynaptic currents (EPSCs) recorded from the hippocampal autapse preparation; format: cell-based; settings: 1 μM
Text: Note that the initial component of the EPSC is mediated by AMPA-sensitive glutamate receptors, whereas a delayed component is mediated by NMDA receptors. […] See Chen, H.-S. V. et al. Neuroscience 86, 1121-1132 (1998).

[2] = test system: brain damage after the ischaemic event; settings: given up to 2 hours after the ischaemic event; cited from earlier work
rhodanese = assay: PDI chaperone activity: aggregation of guanidinium-denatured rhodanese; format: biochemical; settings: 1 μM recombinant PDI
Experimental: To determine whether S-nitrosylation affects PDI function, PDI chaperone and isomerase activities were monitored. Chaperone activity was assessed in a standard assay by measuring the degree of aggregation of rhodanese induced by guanidinium, as previously described9. Rhodanese aggregation occurred in a time-dependent manner, and incubation with recombinant wild-type PDI, but not dominantnegative PDI (produced by the N-terminal and C-terminal mutant) (Ko, H. S., et al. J. Biol. Chem., 277, 35386-35392, (2002)), suppressed this aggregation by about 80%. […] Thus, S-nitrosylation inhibited the functional activities of PDI. […] Therefore, the inhibitory effect of PDI on the aggregation of synphilin-1 was investigated, as observed in Lewy body inclusions in the brains of PD patients. First, it was tested if PDI could prevent the ubiquitinated, Lewy-body-like inclusions that are formed in the cytosol after synphilin-1 overexpression in cultured SH-SY5Y cells (See FIG. 2c). […]
Chaperone activity of PDI was measured by analyzing the renaturation (refolding) of denatured rhodanese in the presence of 1 μM PDI or its mutant form (Vuori, K., et al. J. Biol. Chem, 267, 7211-7214, (1992); Horibe, T. et al. J. Biol. Chem. 279, 4604-4611 (2004); Martin, J. et al. Nature 352, 36-42 (1991)). […] The aggregation of denatured rhodanese was monitored by the increase in absorbance at 320 nm. […]

N#Cc1cc2[nH]c(=O)c(=O)[nH]c2cc1[N+](=O)[O-] [CNQX]
scored as hit (significantly blocked calcium entry induced by KA) [1]: positively scored

O=[N+]([O-])c1cc2nc(O)c(O)nc2cc1[N+](=O)[O-] [DNQX]
scored as hit (significantly blocked calcium entry induced by KA) [1]: scored positively in all three screens

C[C@]12N[C@H](Cc3ccccc31)c1ccccc12 [MK-801, dizocilpine]
block of the NMDA receptor-mediated component of the EPSC (NMDA receptor): complete blockade

NS(=O)(=O)c1cccc2c1c([N+](=O)[O-])cc1nc(O)c(O)nc12 [NBQX]
scored as hit (significantly blocked calcium entry induced by KA) [1]: scored positively in all three screens

CC12CC3CC(C)(C1)CC(N)(C3)C2 [memantine]
reduction of brain damage [2]: approximately 50%
block of the NMDA receptor-mediated component of the EPSC (NMDA receptor): 10-15%

wild-type PDI: recombinant wild-type protein-disulphide isomerase
suppression of rhodanese aggregation (rhodanese): about 80%
